# Data from BindingDB's records for patent US11344546 (Recurium Ip Holding, 2022).
# Target: Apoptosis regulator Bcl-2 (Homo sapiens, UniProt P10415)
# Assay: Binding Assay
# Procedure: Table 1: Binding to Bcl-2 proteins Bcl-2, and Bcl-XL was assessed using the Bcl2scan platform: T7 phage strains displaying BCL2 proteins were grown in parallel in 24-well blocks in an E. coli host derived from the BL21 strain. E. coli were grown to log-phase and infected with T7 phage from a frozen stock (multiplicity of infection=0.4) and incubated with shaking at 32° C. until lysis (90-150 minutes). The lysates were centrifuged (5,000×g) and filtered (0.2 μm) to remove cell debris. […] The liganded beads were blocked with excess biotin and washed with blocking buffer (SeaBlock (Pierce), 1% BSA, 0.05% Tween 20, 1 mM DTT) to remove unbound ligand and to reduce non-specific phage binding. […] Test compounds were prepared as 100× stocks in 100% DMSO. Kds were determined using an 11-point 3-fold compound dilution series with one DMSO control point. […] The compounds were then diluted directly into the assays such that the final concentration of DMSO was 0.9%. All reactions performed in polypropylene 384-well plates. Each was a final volume of 0.02 ml.
# Apoptosis regulator Bcl-2, sequence (P10415 whole entry): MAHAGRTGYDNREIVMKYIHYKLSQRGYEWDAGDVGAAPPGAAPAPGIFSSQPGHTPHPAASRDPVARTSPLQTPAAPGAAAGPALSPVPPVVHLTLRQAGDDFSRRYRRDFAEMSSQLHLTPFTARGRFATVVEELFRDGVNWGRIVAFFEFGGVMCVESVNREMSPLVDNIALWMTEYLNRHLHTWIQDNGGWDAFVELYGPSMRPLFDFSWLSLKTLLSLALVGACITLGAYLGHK
structure (smiles),measurement,value
"CCC12CC(C3=C(CN4CCN(c5ccc(C(=O)NS(=O)(=O)c6ccc(OCC7(F)CCOCC7)c([N+](=O)O)c6)c(Oc6cnc7[nH]ccc7c6)c5)CC4)CCC(C)(C)C3)(C1)C2 [US11344546, Example 26]",Kd,< 10 nM
